The numbers were not newly measured in PMC11243196, “Identification of Benzothiazoles Bearing 1,3,4-Thiadiazole as Antiproliferative Hybrids Targeting VEGFR-2 and BRAF Kinase: Design, Synthesis, BIO Evaluation and In Silico Study” (Molecules, 2024), which cites them from elsewhere.

In general, IC50 refers to the point on the concentration scale where inhibition reaches its midpoint.

Series [1] concerns FGFR-1. The arrangement: method as in PMID 32045054. Conditions: read-out: IC50 against FGFR-1; cited from earlier work.
The test system of series [2] is VEGFR-2 in MCF-7 cells. The arrangement: method as in PMID 32045054. Conditions: cited from earlier work.
For series [3], the system named is PDGFR-β. The arrangement: method as in PMID 32045054. Conditions: read-out: IC50 against PDGFR-β; cited from earlier work.
The subject of series [4] is BRAFV600. Conditions: read-out: IC50 against BRAFV600; cited from earlier work.
The subject of series [5] is CRAF. As to conditions: read-out: IC50 against CRAF; cited from earlier work.

In the case of `COc1cc(/C=N/NC(=O)COc2ccc(-c3nc4ccccc4s3)cc2OC)ccc1O` [III], the IC50 is 190 nM in series [1] and 80 nM in series [3]. In addition, the “inhibitory effect on VEGFR-2 in MCF-7 cells” value in series [2] is recorded as 83%.

With `CNC(=O)c1cc(Oc2ccc3nc(NC(=O)Nc4ccc(Cl)c(Cl)c4)sc3c2)ccn1` [IV], the values for the IC50 in series [4] and in series [5] were 95 nM and 15 nM, respectively.
